The values that follow come from patent US12715946B2, “Composition” (JOSHO GAKUEN EDUCATIONAL FOUNDATION, priority 2020, dated 2026).

The experiment deals with Chinese hamster ovary cells (CHO cells). The experiment in a line: Evaluation of cellular uptake of FITC-labeled model drugs (flow cytometry, MFI). The experiment is classed as cell-based. The conditions noted are these: 5 μg/mL, 2 hours incubation, n=3. The method, then: Cellular uptake evaluation of the model drugs described above was conducted using Examples 1 to 3 (polymeric compounds of Manufacturing Examples 1 to 3) or Comparative Examples 1 to 2 (compounds of Manufacturing Examples 4 and 5). A suspension of Ham's F-12 medium (manufactured by Fujifilm Wako Chemical Corporation) containing Chinese hamster ovary cells (CHO cells, 2×10^5 cells/mL) was prepared and seeded at 500μL/well to each well of a 24-well plate. The cells were incubated in a CO2 gas incubator (37° C., 5% CO2) for 24 hours.
Then, the compositions of the Examples and Comparative Examples (Table 1-6) were prepared by mixing 250 μL/well of Ham's F-12 medium containing the above model drugs and 250 μL/well of Ham's F-12 medium containing the manufacturing examples.
Then, the supernatant was removed from each well of the pre-cultured 24-well plate using an aspirator and the cells were washed twice with 500 μL/well of phosphate-buffered saline. Then, the aforementioned compositions were gently added to the wells and incubated in a carbon dioxide incubator for 2 hours. The number of experiments was n=3.
After 2 hours, the supernatants of medium were removed, and the cells were washed twice with 500 μL/well of phosphate-buffered saline. Then, 100 μL/well of trypsin-EDTA solution (0.25% trypsin, 1 mmol/L EDTA solution, Life Technologies) was added, and cultured CHO cells were detached from 24-well plates.
Then, 400 μL/well of trypan blue solution (Fujifilm Wako Chemical Corporation) was added to suspend the cells, and the cells were collected in microtubes. The collected cell suspensions were passed through a cell strainer, and the mean fluorescence intensity (MFI) was measured by flow cytometry. The cells without the polymeric compound (only the model drug was added) were used as controls.
While only the model drug introduced into the cells emits fluorescence. MFI represents the arithmetic average of the fluorescence intensity per cell, and a larger value of MFI indicates a more efficient intracellular uptake of the model drug.
(In general: A flow cytometer gives signals particle by particle.)

Regarding `O=C([O-])CCCCCCCNC(=O)c1ccccc1O.[Na+]` [Comparative Example 2, Sodium salcaprozate], the “MFI ± S.D.” value (Model drug: FITC-CTB (Molecular weight 11,000)) stood at 3.7 ± 0.1; the “MFI ± S.D.” value (Model drug: FITC-INS (Molecular weight 5,800)) stood at 19.7 ± 0.2; the “MFI ± S.D.” value (Model drug: FITC-IgG (Molecular weight 150,000)) was found to be 3.2 ± 0.1; the “MFI ± S.D.” value (Model drug: FITC-IgM (Molecular weight 900,000)) is 3.1 ± 0.2; the “MFI ± S.D.” value (Model drug: FITC-OVA (Molecular weight 45,000)) was 3.6 ± 0.4; the “MFI ± S.D.” value (Model drug: FITC-Tf (Molecular weight 77,000)) turned out to be 6.7 ± 0.2.
